Reference: ChEMBL document CHEMBL4177695, “Identification of pyruvate dehydrogenase kinase 1 inhibitors with anti-osteosarcoma activity” (Bioorg Med Chem Lett, 2017)
Active and inactive are the calls of the source. The rule behind the calls is not given here.

Key:
[1] = biological target: T1, [Pyruvate dehydrogenase (acetyl-transferring)] kinase isozyme 1, mitochondrial (Homo sapiens, UniProt Q15118); details: 10 mM
Description: Inhibition of PDK1 in human MG63 cells assessed as reduction in pyruvate dehydrogenase complex phosphorylation at ser293 residue at 10 mM after 12 hrs by high content analysis

[2] = biological target: T1, [Pyruvate dehydrogenase (acetyl-transferring)] kinase isozyme 1, mitochondrial; details: 10 mM; remark: listed apart in the source
Description: Inhibition of PDK1 in human MG63 cells assessed as reduction in pyruvate dehydrogenase complex phosphorylation at ser232 residue at 10 mM after 12 hrs by high content analysis

[3] = biological target: T1, [Pyruvate dehydrogenase (acetyl-transferring)] kinase isozyme 1, mitochondrial; details: 10 mM; remark: listed apart in the source
Description: Inhibition of PDK1 in human MG63 cells assessed as reduction in pyruvate dehydrogenase complex phosphorylation at ser293 residue at 10 mM after 24 hrs by Western blot analysis

[4] = biological target: T1, [Pyruvate dehydrogenase (acetyl-transferring)] kinase isozyme 1, mitochondrial; details: 10 mM; remark: listed apart in the source
Description: Inhibition of PDK1 in human MG63 cells assessed as reduction in pyruvate dehydrogenase complex phosphorylation at ser232 residue at 10 mM after 24 hrs by Western blot analysis

MG-63 [5] = experiment: Anti-proliferative activity against human MG63 cells after 72 hrs by MTT assay; assay type: functional, cell-based; details: for EC50: MG-63, 72 h
[6] = biological target: [Pyruvate dehydrogenase (acetyl-transferring)] kinase isozyme 2, mitochondrial (Homo sapiens, UniProt Q15119); experiment: Inhibition of recombinant human GST-tagged PDK2 expressed in baculovirus infected Sf9 cells using PDHA1 as substrate measured after 1 hr by ELISA
[7] = biological target: T1, [Pyruvate dehydrogenase (acetyl-transferring)] kinase isozyme 1, mitochondrial; experiment: Inhibition of PDK1 in human MG63 cells assessed as reduction in pyruvate dehydrogenase complex phosphorylation at ser293 residue at 12 uM after 12 hrs by high content analysis relative to control; assay type: cell-based
[8] = biological target: T1, [Pyruvate dehydrogenase (acetyl-transferring)] kinase isozyme 1, mitochondrial; experiment: Inhibition of PDK1 in human MG63 cells assessed as reduction in pyruvate dehydrogenase complex phosphorylation at ser232 residue after 12 hrs by high content analysis; assay type: cell-based
[9] = biological target: T1, [Pyruvate dehydrogenase (acetyl-transferring)] kinase isozyme 1, mitochondrial; experiment: Inhibition of PDK1 in human MG63 cells assessed as reduction in pyruvate dehydrogenase complex phosphorylation at ser293 residue at 6 uM after 12 hrs by high content analysis relative to control; assay type: cell-based
[10] = biological target: T1, [Pyruvate dehydrogenase (acetyl-transferring)] kinase isozyme 1, mitochondrial; experiment: Inhibition of PDK1 in human MG63 cells assessed as reduction in pyruvate dehydrogenase complex phosphorylation at ser293 residue after 24 hrs by Western blot analysis; assay type: cell-based
[11] = biological target: T1, [Pyruvate dehydrogenase (acetyl-transferring)] kinase isozyme 1, mitochondrial; experiment: Inhibition of PDK1 in human MG63 cells assessed as reduction in pyruvate dehydrogenase complex phosphorylation at ser232 residue after 24 hrs by Western blot analysis; assay type: cell-based
[12] = biological target: T1, [Pyruvate dehydrogenase (acetyl-transferring)] kinase isozyme 1, mitochondrial; experiment: Potency index, ratio of DCA IC50 to test compound IC50 for recombinant human GST-tagged PDK1 expressed in baculovirus infected Sf9 cells
[13] = biological target: T1, [Pyruvate dehydrogenase (acetyl-transferring)] kinase isozyme 1, mitochondrial; experiment: Inhibition of PDK1 in human MG63 cells assessed as reduction in pyruvate dehydrogenase complex phosphorylation at ser293 residue after 12 hrs by high content analysis; assay type: cell-based
MG-63 [14] = experiment: Potency index, ratio of DCA EC50 to test compound EC50 for human MG63 cells; assay type: functional
[15] = biological target: T1, [Pyruvate dehydrogenase (acetyl-transferring)] kinase isozyme 1, mitochondrial; experiment: Inhibition of PDK1 in human MG63 cells assessed as reduction in pyruvate dehydrogenase complex phosphorylation at ser293 residue at 3 uM after 12 hrs by high content analysis relative to control; assay type: cell-based
[16] = biological target: T1, [Pyruvate dehydrogenase (acetyl-transferring)] kinase isozyme 1, mitochondrial; experiment: Inhibition of recombinant human GST-tagged PDK1 expressed in baculovirus infected Sf9 cells at 10 uM using PDHA1 as substrate measured after 1 hr by ELISA relative to control
[17] = biological target: T1, [Pyruvate dehydrogenase (acetyl-transferring)] kinase isozyme 1, mitochondrial; experiment: Inhibition of recombinant human GST-tagged PDK1 expressed in baculovirus infected Sf9 cells using PDHA1 as substrate measured after 1 hr by ELISA

T1 sequence (Q15118 whole entry): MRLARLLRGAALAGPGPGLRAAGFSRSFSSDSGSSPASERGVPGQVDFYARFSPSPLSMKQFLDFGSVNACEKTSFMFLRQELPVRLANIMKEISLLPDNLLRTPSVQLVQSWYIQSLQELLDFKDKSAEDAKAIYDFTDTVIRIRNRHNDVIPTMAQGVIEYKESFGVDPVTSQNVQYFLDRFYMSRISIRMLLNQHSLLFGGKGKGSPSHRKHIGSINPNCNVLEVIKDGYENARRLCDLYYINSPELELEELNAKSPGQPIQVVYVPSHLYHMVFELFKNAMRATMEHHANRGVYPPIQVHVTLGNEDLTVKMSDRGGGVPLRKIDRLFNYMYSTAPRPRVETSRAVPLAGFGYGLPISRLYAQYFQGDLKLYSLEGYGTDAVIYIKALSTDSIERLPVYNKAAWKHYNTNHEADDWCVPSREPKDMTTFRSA

Row | Structure (SMILES) | inhibition [1] | inhibition [2] | inhibition [3] | inhibition [4] | EC50 (MG-63 [5]) [µM] | IC50 [6] [µM] | inhibition [7] [%] | inhibition [8] | inhibition [9] [%] | inhibition [10] | inhibition [11] | Ratio IC50 [12] | Activity (MG-63 [5]) | inhibition [13] | Ratio EC50 (MG-63 [14]) | inhibition [15] [%] | inhibition [16] [%] | IC50 [17] [µM]
1 | O=C(O)C(Cl)Cl [DICHLOROACETIC ACID] | Active | Active | Active | Active | 15400 | 9000 |  |  |  |  |  |  |  |  |  |  |  | 
2 | O=c1c(-c2ccc(Br)cc2)coc2cc(OCCN3CCN(CCO)CC3)ccc12 |  |  |  |  | 11 | 10.9 | 75.3 | Dose-dependent effect | 49.3 | Dose-dependent effect | Dose-dependent effect | > 1000 | Dose-dependent effect | Dose-dependent effect | >1000 | 17.6 | 83.3 | 3.14
3 | COc1ccc(-c2c(C)c3ccc(OCCN4CCN(CCO)CC4)cc3oc2=O)cc1OC |  |  |  |  | 14.5 | 5.2 | 78.3 | Dose-dependent effect | 39.7 | Dose-dependent effect | Dose-dependent effect | > 1000 | Dose-dependent effect | Dose-dependent effect | >1000 | 18.7 | 80.5 | 2.97
